Measured values taken from publication PMC13294250, “An effort to enhance the clinical translatability of caprate-based tablet formulations in gastric peptide delivery” (Drug Delivery and Translational Research, 2025).
Like-named read-outs stand apart in the source and are kept apart here.

How the values were obtained:
[1] = cited from earlier work
Text: Given the negative impact of low gastric pH on both in vitro and in vivo performance of C10-based tablets, the use of a pH modifier was investigated to mitigate the acidity of the human stomach. Since C10 is an ionizable compound known to form different colloidal structures dependant on pH, selection of an appropriate pH modifier is paramount. The resulting pH should enable fast disintegration and dissolution of the formulation, whilst securing that the colloidal species formed facilitate the permeation enhancing effect needed for absorption of the macromolecule. Monomeric C10 is presumed to b ...

[2] = CAC and CMC determinations by dynamic light scattering; type: physicochemical; settings: DLS at 25 °C
Protocol: Stock solutions of sodium caprate were made in the individual buffers. 10–100 mM phosphate buffer was used for most sample series, while 50 mM sodium borate was used for pH 9 [31]. In the case of meglumine a 20 mM Tris buffer pH 8.5 was used. Samples were prepared with and without 20 mg/ml meglumine. All samples were pH adjusted and filtered through 0.22 μm (Millipore 6830-0021). Dynamic light scattering (DLS) data was acquired at 25 °C by adding 20–25 µL of each sample in triplicates to a 384 well plate Corning® 3540 (Corning, NY, USA). The plate was centrifuged for 5 min at 1200 rpm before analysis to remove any air bubbles from the wells. […] A DynaPro™ Plate Reader and Dynamics™ software version 7 (Wyatt Technology Corp., Santa Barbara, CA, USA) was used to collect and analyze the data.

[3] = sodium carbonate as pH modifier candidate in C10 tablets, oral
Protocol: On top of elevating the pH, the pH-modifying excipient needs to ensure manufacturability of tablets while being compatible with the API in the formulation. An array of alkaline agents capable of increasing the pH were screened (Figure S2) by addition of the pH modifier in 20 mL of acidic media (0.1 M HCl) with 0.1 M KCl, and 10 mg/mL of C10 at 37 °C, which is close to the physiological condition of experimental animals when C10 tablet formulation is dosed. The volume and concentration of HCl and KCl were selected to replicate the gastric in vivo conditions, whereas C10 was added to mimic the intrinsic buffer capacity of the PE present in the tablet.

[4] = Screening of the meglumine amount in acidic medium containing C10; type: physicochemical; settings: 37 °C, pH meter
Protocol: In addition, it is an approved pharmaceutical excipient marketed in several oral dosage forms such as telmisartan, repaglinide and rosuvastatine tablets. To identify the most suitable meglumine amount for C10-based tablets, a systematic screening was conducted in 20 mL acidic medium (KCl 0.1 M/ HCl 0.025 M, 10 mL + 10 mL of MQ water) reflecting the composition of dog gastric fluid after dosing of water. The medium contained either 50, 100, 200, or 300 mg of C10 to account for different enhancer amounts, and the evolution of pH against added meglumine amount was monitored (Table 1). Since a final pH above 8.5 around the tablet in the stomach is desirable for C10 dissolution and to achieve the single-phased micellar system with high monomeric C10 availability, the corresponding meglumine amount needed to reach pH 8.5 was set as the lower limit for formulation development.
A stock solution of KCl 0.1 M/ HCl 0.025 M, pH = 1.6 was prepared. 10mL of this solution was added to 10 mL of MQ water in tubes containing either 50, 100, 200, or 300 mg of C10 granules. Each solution was gently stirred at 37 °C. Meglumine was added in amounts beyond the calculated neutralization point. pH was recorded using a pH meter PHM 200 (Mettler Toledo). Turbidity/clarity was visually assessed for records.

[5] = no reference given; cited from earlier work
Text: Meglumine was selected due to its capability to both raise the pH to the desired level and produce tablets with the required quality. […] In addition, it is an approved pharmaceutical excipient marketed in several oral dosage forms such as telmisartan, repaglinide and rosuvastatine tablets. To identify the most suitable meglumine amount for C10-based tablets, a systematic screening ...

[6] = 50 mg C10 / 20 mL acidic medium (10 mL KCl 0.1 M/HCl 0.025 M pH 1.6 + 10 mL MQ water)
[7] = 200 mg C10 / 20 mL acidic medium (10 mL KCl 0.1 M/HCl 0.025 M pH 1.6 + 10 mL MQ water)
[8] = 300 mg C10 / 20 mL acidic medium (10 mL KCl 0.1 M/HCl 0.025 M pH 1.6 + 10 mL MQ water)

Question: With `CCCCCCCCCC(=O)[O-].[Na+]` [Formulation C10, Sodium caprate] as the compound, how does the “critical micelle concentration (CMC)” value ([1]; pH 9.1) read?
Answer: Its value is 81 mM.

Question: And the “critical micelle concentration (CMC)” value ([1]; pH 11.8)?
Answer: The value was 102 mM.

Question: And the “critical aggregate concentration (CAC) of C10 vesicles” value ([2]; pH lower than approximately 8.5, phosphate buffer, triplicates)?
Answer: Its value is “around 15 mM”.

Question: For `O=C([O-])[O-].[Na+].[Na+]` [Sodium carbonate], which “adverse events in dogs” value [3] is on record?
Answer: The value was “vomiting”.

Question: Which “Amount of meglumine (mg) to pH 8.5” value [4, 6] does the source give for `CNC[C@H](O)[C@@H](O)[C@H](O)[C@H](O)CO` [meglumine, Meglumine] here?
Answer: The value was 15 mg.

Question: And the “Amount of meglumine (mg) to pH 9.5” value [4, 6]?
Answer: The value was 25 mg.

Question: What about the “Amount of meglumine (mg) to pH 9.5” value ([4]; 100 mg C10 / 20 mL acidic medium (10 mL KCl 0.1 M/HCl 0.025 M pH 1.6 + 10 mL MQ water)) of the same compound?
Answer: The value was 60 mg.

Question: And the “Amount of meglumine (mg) to pH 8.5” value [4, 7]?
Answer: Its value is 60 mg.

Question: What about the “Amount of meglumine (mg) to pH 9.5” value [4, 7] of the same compound?
Answer: The value was 100 mg.

Question: And the “Amount of meglumine (mg) to pH 8.5” value [4, 8]?
Answer: The value was 90 mg.

Question: What about the “Amount of meglumine (mg) to pH 9.5” value [4, 8] of the same compound?
Answer: The value was 125 mg.

Question: What about the “impact of meglumine on the CMC of C10 (in words)” value ([2]; 20 mM Tris buffer pH 8.5, with and without 20 mg/ml meglumine) of the same compound?
Answer: Its value is “did not show any impact”.

Question: What about the pKa [5] of the same compound?
Answer: The pKa was 9.6.
